# Source: patent US7488425B2, “Method for photolyzing organic matter and method for treating wastewater” (Nisshinbo Industries, Inc., priority 2004, dated 2009)
# Where a name gives a salt, the structure may show the parent alone.
# Tests used:
# [1] = Mixing with simple distilled water (phase separation, hydrophobicity); assay type: physicochemical
# Description: As used herein, “hydrophobic” refers to the property of, after being mixed or stirred with water, separating again into two phases on standing. While it suffices for the hydrophobic ionic liquid to have this quality, when the above photolytic process is employed for the subsequently described wastewater treatment or the like, a hydrophobic ionic liquid with a lower solubility in water will result in a smaller loss of ionic liquid during wastewater treatment and enable treated water having a higher degree of cleanliness to be obtained.
# (§1) The solubility in simple distilled water (25° C.) was about 1.5 wt %.
# [2] = Solubility of the ionic liquid in simple distilled water; assay type: physicochemical; details: 25° C.
# Protocol: as §1
Compound,behaviour when mixed with simple distilled water [1],solubility in simple distilled water [2]
"CCn1cc[n+](C)c1.O=S(=O)([O-])C(F)(F)F [EMIMTfO, 1-ethyl-3-methylimidazolium trifluoromethanesulfonate, reference compound]",forms a homogeneous phase,
"CC[N+](C)(CC)CCOC [ionic liquid (2), Bis(trifluoromethanesulfonyl)imide Salt of N,N-Diethyl-N-methyl-N-(2-methoxyethyl)ammonium]",separated into two phases,about 1.5 wt %
